Test: Elimination of FP from inside of the oral cavity by gargling/rinsing (Tests 1 to 6), FP in spat-out liquids measured by HPLC
Format: in vivo, human (healthy adult volunteers)
Conditions: conclusion from Tests 1 to 6
Procedure: Healthy 5 adult volunteers were selected. In this connection, these volunteers received sufficient explanation from a doctor based on a descriptive document, and after understanding the explanation, submitted a document on their own judgment stating that they approved the participation in the test.
In this connection, application of FP was carried out by directly applying the FP (dry powder) took out on powder papers. Also, the subjects were given attention not to inhale the FP applied into the oral cavity from the bronchus to the lungs.
Test 1: After rinsing inside of the oral cavity, inside of the oral cavity was dried by blowing air for 30 seconds with a dryer, and then FP (100 μg) was sparged to the oral cavity. Thereafter, rinsing of the mouth with looking upward (gargling) was carried out for 5 seconds and then rinsing of the mouth facing front (rinsing) was carried out for 5 seconds (these are regarded as once), respectively using 20 ml of purified water, which was repeated 5 times. […]
In each test, the liquids spat out after gargling and rinsing by each subject were recovered, and FP concentrations in said liquids were respectively measured. […]
Based on the measured FP concentrations, amounts of FP eliminated from inside of the oral cavity were calculated, and mean value and standard deviation (SD) in each test were calculated. […]

hyaluronic acid [HA]
overall effect on elimination of drugs and acceleration of elimination: markedly effective
